One compound from ChEMBL document CHEMBL4616724, “Topoisomerase Inhibitors Addressing Fluoroquinolone Resistance in Gram-Negative Bacteria” (J Med Chem, 2020) can be followed below.

In one data set the test system is Proteus mirabilis. Nature of the data set: Antibacterial activity against Proteus mirabilis clinical isolates by CLSI-based broth microdilution assay. The data set is classed as functional.
Data set [1] has as its system Escherichia coli. The data set is described as follows: Antibacterial activity against wild type Escherichia coli ATCC 25922 at pH 7.4 by CLSI-based broth microdilution assay. Format: functional. Background: Broth dilution looks for growth in wells or tubes with falling amounts of substance.
Data set [2] in a line: Volume of distribution at steady state in mouse at 5 mg/kg, iv or po measured up to 24 hrs by LC-MS/MS analysis. Format: ADME, organism-based. Conditions: in vivo, read-out: Vdss.
Data set [3] concerns Escherichia coli. Nature of the data set: Antibacterial activity against wild type Escherichia coli ATCC 25922 at pH 5.8 by CLSI-based broth microdilution assay. The data set is classed as functional.
A short description of data set [4]: Dose normalized Cmax in rat at 10 mg/kg, po measured up to 24 hrs by LC-MS/MS analysis. The data set is classed as ADME, organism-based. The settings on record: in vivo.
Data set [5] in a line: Efflux ratio of apparent permeability in human Caco2 cells at 10 uM after 2 hrs by LC-MS/MS analysis. Format: ADME, cell-based. The settings on record: Caco-2. A general note: Caco-2 cells form a polarised layer with tight junctions and transporters.
A short description of data set [6]: Inhibition of recombinant full-length C-terminal His6-tagged Escherichia coli DNA topoisomerase 4 subunit ParC/ParE using kinetoplast DNA as substrate preincubated for 30 mins followed by substrate addition and measured after 1 hr in presence of ATP by size exclusion chromatography. For orientation: SEC sorts molecules by how far they enter the pores of the column.

Data set [7] can be described thus: Dose normalized AUC in mouse at 5 mg/kg, po measured up to 24 hrs by LC-MS/MS analysis. Conditions: in vivo. The data set is classed as ADME, organism-based.
A further data set has as its system Pseudomonas aeruginosa. The data set is described as follows: Antibacterial activity against Pseudomonas aeruginosa clinical isolates by CLSI-based broth microdilution assay. The data set is classed as functional.
The nature of data set [8]: Terminal half life in mouse at 5 mg/kg, iv measured up to 24 hrs by LC-MS/MS analysis. Format: ADME, organism-based. Conditions: in vivo, read-out: beta t1/2 (converted).
A short description of data set [9]: Intrinsic clearance in mouse liver microsomes at 1 uM in presence of NADPH and measured up to 30 mins by LC-MS/MS analysis. The data set is classed as ADME, Microsome. The settings on record: read-out: CLH.
Data set [10] is described as follows: Intrinsic clearance in human liver microsomes at 1 uM in presence of NADPH and measured up to 30 mins by LC-MS/MS analysis. The settings on record: read-out: CLH. Format: ADME, Microsome.
The subject of the next data set is Klebsiella oxytoca. Nature of the data set: Antibacterial activity against Klebsiella oxytoca clinical isolates by CLSI-based broth microdilution assay. Format: functional.
Data set [11] can be described thus: Tmax in rat at 10 mg/kg, po measured up to 24 hrs by LC-MS/MS analysis. Format: ADME, organism-based. The settings on record: in vivo.

pIC50: −log10 of the molar value. In brackets after ≈: the same amount, converted by molar mass.

Take `Cc1c(N2CC3CC3(N)C2)c(F)cc2c(CN)c(F)c(=O)n(C3CC3)c12` (stereo not given): the MIC (as a rule, the least concentration at which growth counts as inhibited) against Proteus mirabilis is 0.06 to 32 µg/mL (≈ 0.166 to 88.8 µM); against Escherichia coli [1], 0.06 µg/mL (≈ 0.166 µM); against Escherichia coli [3] it was 32 µg/mL (≈ 88.8 µM); in the data set with Pseudomonas aeruginosa it was 1 to 32 µg/mL (≈ 2.77 to 88.8 µM); in the data set on Klebsiella oxytoca, 0.06 to 32 µg/mL (≈ 0.166 to 88.8 µM). The figures for the MIC50 with Proteus mirabilis, in the data set on Pseudomonas aeruginosa and with Klebsiella oxytoca were 1 µg/mL (≈ 2.77 µM), 8 µg/mL (≈ 22.2 µM) and 1 µg/mL (≈ 2.77 µM), respectively. The MIC90 (commonly the lowest concentration that inhibits either 90% of growth or 90% of the strains tested, depending on the study) in the data set on Proteus mirabilis stood at 8 µg/mL (≈ 22.2 µM); with Pseudomonas aeruginosa, 32 µg/mL (≈ 88.8 µM); in the data set with Klebsiella oxytoca, 8 µg/mL (≈ 22.2 µM). For the same compound, the Vd in data set [2] was found to be 5.1 L/kg. In data set [4], this compound returned a Cmax/dose of 0.01 µM/mg/kg. Besides, the efflux ratio (as a rule, a quotient of directional permeabilities that is used to spot active efflux) at 2 h, 10 µM in [5] is 1.8. Further, the pIC50 (commonly the negative decadic logarithm of the IC50, by convention in mol/L) in [6] is 6.09. For the same compound, the AUC/dose in data set [7] came out at 0.31 µM·h/mg/kg. Further, in data set [8], the half-life is 1.7 h. Also, the microsomal CLint at 1 µM in [9] was 40 µL/min/mg; in data set [10], 18 µL/min/mg. The Tmax (usually the time at which the peak concentration occurs) in [11] worked out at 1.3 h.
